pEC50, pIC50: −log10 of the molar value.

EC50, Emax and IC50 data for 11 compounds are collected here from patent US20230322756A1, “FUSED IMIDAZOLE DERIVATIVE, PREPARATION METHOD THEREFOR, AND MEDICAL USE THEREOF” (JIANGSU HENGRUI MEDICINE CO., LTD., priority 2020, published 2023).

One series has as its target GLP-1 receptor (Homo sapiens (Human), UniProt P43220). The series can be described thus: Agonist activity against GLP-1 receptor, CRE-luciferase reporter (ONE-Glo) in CHO-K1/CRE-luc/GLP-1 receptor cells. The class given is cell-based. The note with it: 6 h incubation. The source says:
This experiment was intended to test the agonist activity of the compound molecules against the GLP-1 receptor and evaluate the in vitro activity of the molecules according to EC50. The experiment adopted a ONE-Glo™ Luciferase Assay System (Promega, E6110). Under the action of compound molecules, GLP-1R downstream signaling pathways were activated to cause elevated cAMP level. The combination of cAMP and CRE could start the transcription expression of CRE downstream luciferase genes, the luciferase could emit fluorescence when reacting with substrates thereof, and the activity of the compound for agonizing GLP-1 receptors was reflected by measuring fluorescence signals through a ONE-Glo™ reagent.
Stably-expressed CHO-K1/CRE-luc/GLP-1 receptor cell strains (self-construction of GLP-1 receptor plasmid; CRE-luc plasmid Promega E8471) were constructed. CHO-K1/CRE-luc/GLP-1 receptor cells were digested, and resuspended after centrifugation. […] The plate was incubated in an incubator for 16 h (37° C., 5% CO2).
The compound was dissolved in DMSO to prepare a stock solution with an initial concentration of 20 mM. The starting concentration of the small molecule compound was 0.2 mM, and the compound underwent 3-fold serial dilution for a total of 10 concentration points, with DMSO at the 11th point. To another 96-well plate was added 95 μL of cell culture medium (DME/F-12+10% FBS), 5 μL of test samples with different concentrations were added to each well, followed by uniform mixing, and then 10 μL of test samples with different concentrations were added to each well, with two duplicate wells set for each sample. The plate was incubated in an incubator for 6 h (37° C., 5% CO2). The 96-well cell culture plate was taken out, and 100 μL of ONE-Glo™ reagent was added to each well, followed by incubation at room temperature for 10 min. The plate was placed in a microplate reader (EnVision 2105, PE) for determination of chemiluminescence.
Data were processed and analyzed using Microsoft Excel and Graphpad Prism 5.
(Reporter assays use an easily measured gene product as a stand-in for the process of interest.)

Another series has as its target hERG potassium channel (Homo sapiens (Human), UniProt Q12809). The series can be described thus: Blocking effect on hERG potassium currents, manual patch-clamp in CHO cells stably expressing hERG channel. The note with it: read-out: IC50 for the blocking effect on the hERG potassium ion channel. The class given is cell-based. The text has this: This example is intended to assess the blocking effect of the compounds of the present disclosure and positive compound 1 (see the compound of Example 7 on page 125 of WO2019239319A1) on hERG potassium currents in a stable cell strain transfected with an hERG potassium channel by a manual patch-clamp assay. The structure of positive compound 1 is shown below:
The cells used in this experiment were from a CHO cell line (provided by Sophion Bioscience, Denmark) transfected with hERG cDNA and stably expressing hERG channel at cell passage number of P5. Cells were cultured in a medium containing the following components (all from Invitrogen): Ham's F12 medium, 10% (v/v) inactivated fetal bovine serum, 100 μg/mL hygromycin B, and 100 μg/mL geneticin.
CHO hERG cells were grown in a culture dish containing the above culture medium and cultured in an incubator at 37° C. with 5% CO2. 24-48 h before the electrophysiological experiment, CHO hERG cells were transferred to round slides placed in the culture dish and grown in the same culture medium and culture conditions as above. The density of CHO hERG cells on each round slide was required to achieve the requirement that most cells were independent and individual.
In this experiment, a manual patch-clamp system (HEKA EPC-10 signal amplifier and digital conversion system, purchased from HEKA Electronics, Germany) was used for whole cell current recording. Round slides with CHO hERG cells grown on the surface were placed in an electrophysiological recording chamber under an inverted microscope. The chamber was continuously perfused with extracellular fluid (approximately 1 mL/min). The experimental procedures were performed by conventional whole-cell patch-clamp current recording technology. Unless otherwise stated, the experiment was performed at room temperature ([…]). The cells were clamped at a voltage of −80 mV. The cell clamp voltage was depolarized to +20 mV to activate the hERG potassium channel, and then clamped to −50 mV 5 s later to eliminate inactivation and generate tail currents. The tail current peak was used as a value for the numeral value of the hERG current. After the hERG potassium currents recorded in the above step were stable under the continuous extracellular fluid perfusion in the recording chamber, the drug to be tested could be added for perfusion until the inhibitory effect of the drug on the hERG current reached a stable state. Generally, the last superposition of 3 consecutive current recording lines is used as a criterion for determining whether a stable state is reached. […]
The experimental data were analyzed by data analysis software supplied by HEKA Patchmaster(V2x73.2), Microsoft Excel, and Graphpad Prism 5.0. […]
A general note: The hERG channel carries a current that helps repolarise heart muscle cells.

Chain of GLP-1 receptor (P43220 24-463): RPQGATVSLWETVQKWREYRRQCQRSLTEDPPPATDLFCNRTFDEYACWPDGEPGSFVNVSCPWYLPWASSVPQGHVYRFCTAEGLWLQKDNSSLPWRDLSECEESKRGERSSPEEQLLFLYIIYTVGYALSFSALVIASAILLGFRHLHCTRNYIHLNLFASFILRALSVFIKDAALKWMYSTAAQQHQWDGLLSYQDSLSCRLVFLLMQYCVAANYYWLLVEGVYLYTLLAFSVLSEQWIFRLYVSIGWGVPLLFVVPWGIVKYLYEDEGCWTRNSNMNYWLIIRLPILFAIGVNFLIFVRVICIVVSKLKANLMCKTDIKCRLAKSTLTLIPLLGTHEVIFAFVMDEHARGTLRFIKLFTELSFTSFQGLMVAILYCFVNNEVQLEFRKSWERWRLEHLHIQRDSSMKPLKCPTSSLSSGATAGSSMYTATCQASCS
Chain of hERG potassium channel (Q12809 whole entry): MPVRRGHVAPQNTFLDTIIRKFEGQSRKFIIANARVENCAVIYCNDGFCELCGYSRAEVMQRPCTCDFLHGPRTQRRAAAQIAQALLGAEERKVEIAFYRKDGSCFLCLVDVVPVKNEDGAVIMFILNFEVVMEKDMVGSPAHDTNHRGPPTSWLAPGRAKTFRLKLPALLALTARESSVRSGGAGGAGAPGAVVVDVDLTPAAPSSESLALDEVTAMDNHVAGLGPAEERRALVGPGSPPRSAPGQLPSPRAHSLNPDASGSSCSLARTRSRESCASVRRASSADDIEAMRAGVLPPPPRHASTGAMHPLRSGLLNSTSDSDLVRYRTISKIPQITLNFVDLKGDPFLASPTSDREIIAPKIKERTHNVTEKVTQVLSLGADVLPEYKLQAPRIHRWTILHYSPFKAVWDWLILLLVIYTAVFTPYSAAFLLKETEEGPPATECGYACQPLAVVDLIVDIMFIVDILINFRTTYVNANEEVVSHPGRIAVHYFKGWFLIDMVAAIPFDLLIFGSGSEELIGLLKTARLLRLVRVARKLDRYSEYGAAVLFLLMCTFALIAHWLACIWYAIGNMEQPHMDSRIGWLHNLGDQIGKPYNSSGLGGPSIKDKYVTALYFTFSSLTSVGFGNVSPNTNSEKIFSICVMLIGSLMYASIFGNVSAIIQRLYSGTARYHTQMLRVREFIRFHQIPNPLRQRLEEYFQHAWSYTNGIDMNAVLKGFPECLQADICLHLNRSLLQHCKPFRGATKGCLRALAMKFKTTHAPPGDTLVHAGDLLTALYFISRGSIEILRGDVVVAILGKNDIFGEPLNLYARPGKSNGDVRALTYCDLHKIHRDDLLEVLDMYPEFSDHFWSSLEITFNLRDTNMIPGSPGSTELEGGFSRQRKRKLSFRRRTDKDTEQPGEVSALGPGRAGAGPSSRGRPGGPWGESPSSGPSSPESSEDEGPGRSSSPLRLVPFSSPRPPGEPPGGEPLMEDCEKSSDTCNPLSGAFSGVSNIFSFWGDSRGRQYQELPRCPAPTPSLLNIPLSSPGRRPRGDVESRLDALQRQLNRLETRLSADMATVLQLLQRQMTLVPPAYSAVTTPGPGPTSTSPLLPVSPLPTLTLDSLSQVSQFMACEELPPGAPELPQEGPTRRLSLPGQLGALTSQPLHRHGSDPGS

Take `O=C(O)c1ccc2nc(CN3CCC(c4cccc5c4OC(c4nc6ccccc6s4)CO5)CC3)n(C[C@@H]3CCO3)c2c1` (stereo partly drawn) [Example 1, 2-((4-(3-(Benzo[d]thiazol-2-yl)-2,3-dihydrobenzo[b][1,4]dioxan-5-yl)piperidin-1-yl)methyl)-1-(((S)-oxetan-2-yl)methyl)-1H-benzo[d]imidazole-6-carboxylic acid]: at GLP-1 receptor, the pEC50 is 9.25 and the Emax was 109%.

As for `O=C(O)c1ccc2nc(CN3CCC(c4cccc5c4OCC(c4nc6ccccc6s4)O5)CC3)n(C[C@@H]3CCO3)c2c1` (stereo partly drawn) [Example 9, 2-((4-(2-(Benzo[d]thiazol-2-yl)-2,3-dihydrobenzo[b][1,4]dioxan-5-yl)piperidin-1-yl)methyl)-1-(((S)-oxetan-2-yl)methyl)-1H-benzo[d]imidazole-6-carboxylic acid], at GLP-1 receptor, the pEC50 was 8.69 and the Emax is 104%.

As to `O=C(O)c1ccc2nc(CN3CCC(c4cccc5c4OC[C@H](c4nc6ccccc6s4)O5)CC3)n(C[C@@H]3CCO3)c2c1` [Example 10, 2-((4-((R)-2-(Benzo[d]thiazol-2-yl)-2,3-dihydrobenzo[b][1,4]dioxan-5-yl)piperidin-1-yl)methyl)-1-(((S)-oxetan-2-yl)methyl)-1H-benzo[d]imidazole-6-carboxylic acid], on GLP-1 receptor, the pEC50 was 8.92 and the Emax is 103%.

For the compound `O=C(O)c1ccc2nc(CN3CCC(c4cccc5c4OC[C@@H](c4nc6ccccc6s4)O5)CC3)n(C[C@@H]3CCO3)c2c1` [Example 11, 2-((4-((S)-2-(Benzo[d]thiazol-2-yl)-2,3-dihydrobenzo[b][1,4]dioxan-5-yl)piperidin-1-yl)methyl)-1-(((S)-oxetan-2-yl)methyl)-1H-benzo[d]imidazole-6-carboxylic acid], at GLP-1 receptor, the pEC50 is 8.77 and the Emax amounted to 104%.

`O=C(O)c1ccc2nc(CN3CCC(c4cccc5c4OC(c4ccc(Cl)cc4F)CO5)CC3)n(C[C@@H]3CCO3)c2n1` (stereo partly drawn) [Example 12, 2-((4-(3-(4-Chloro-2-fluorophenyl)-2,3-dihydrobenzo[b][1,4]dioxan-5-yl)piperidin-1-yl)methyl)-3-((S)-oxetan-2-ylmethyl)-3H-imidazo[4,5-b]pyridine-5-carboxylic acid]: at GLP-1 receptor, the pEC50 is 8.76 and the Emax is 114%. Also, on hERG potassium channel, the pIC50 is 4.58.

With `O=C(O)c1ccc2nc(CN3CCC(c4cccc5c4OC(c4ccc(Cl)cn4)CO5)CC3)n(C[C@@H]3CCO3)c2c1` (stereo partly drawn) [Example 13, 2-((4-(3-(5-Chloropyridin-2-yl)-2,3-dihydrobenzo[b][1,4]dioxan-5-yl)piperidin-1-yl)methyl)-1-(((S)-oxetan-2-yl)methyl)-1H-benzo[d]imidazole-6-carboxylic acid], at GLP-1 receptor, the pEC50 is 8.75 and the maximal response (Emax) came out at 108%.

Regarding `O=C(O)c1ccc2nc(CN3CCN(c4cccc5c4O[C@@H](c4ccc(Cl)cc4F)CO5)CC3)n(C[C@@H]3CCO3)c2c1` [Example 14, 2-((4-((S)-3-(4-Chloro-2-fluorophenyl)-2,3-dihydrobenzo[b][1,4]dioxan-5-yl)piperazin-1-yl)methyl)-1-(((S)-oxetan-2-yl)methyl)-1H-benzo[d]imidazole-6-carboxylic acid], at GLP-1 receptor, the pEC50 is 8.75 and the Emax was found to be 104%.

Take `N#Cc1ccc(C2COc3cccc(C4CCN(Cc5nc6ccc(C(=O)O)cc6n5C[C@@H]5CCO5)CC4)c3O2)c(F)c1` (stereo partly drawn) [Example 16, 2-((4-(3-(4-Cyano-2-fluorophenyl)-2,3-dihydrobenzo[b][1,4]dioxan-5-yl)piperidin-1-yl)methyl)-1-((S)-oxetan-2-ylmethyl)-1H-benzo[d]imidazole-6-carboxylic acid]: on GLP-1 receptor, the pEC50 is 8.85 and the Emax is 116%.

Consider `O=C(O)c1ccc2nc(CN3CC=C(c4cccc5c4OC(c4ccc(Cl)cc4F)CO5)CC3)n(C[C@@H]3CCO3)c2c1` (some centres unmarked) [Example 17], for which, at GLP-1 receptor, the pEC50 was 8.00 and the Emax was determined as 112%.

With `CC1(c2ccc(Cl)cc2F)COc2c(cccc2C2CCN(Cc3nc4ccc(C(=O)O)cc4n3C[C@@H]3CCO3)CC2)O1` (stereo partly drawn) [Example 18, 2-((4-(2-(4-Chloro-2-fluorophenyl)-2-methyl-2,3-dihydrobenzo[b][1,4]dioxan-5-yl)piperidin-1-yl)methyl)-1-(((S)-oxetan-2-yl)methyl)-1H-benzo[d]imidazole-6-carboxylic acid], on GLP-1 receptor, the pEC50 was 7.74 and the Emax is 103%.

In the case of `CC1(c2ccc(Cl)cc2F)COc2cccc(C3CCN(Cc4nc5ccc(C(=O)O)cc5n4C[C@@H]4CCO4)CC3)c2O1` (stereo partly drawn) [Example 20, 2-((4-(3-(4-Chloro-2-fluorophenyl)-3-methyl-2,3-dihydrobenzo[b][1,4]dioxan-5-yl)piperidin-1-yl)methyl)-1-(((S)-oxetan-2-yl)methyl)-1H-benzo[d]imidazole-6-carboxylic acid], at GLP-1 receptor, the pEC50 was 7.29 and the Emax was found to be 90%.

As a reminder, the pEC50 is −log10 of the EC50, conventionally taken in molar units. A word on the Emax: it is the maximal effect, on the per cent scale that the assay sets. As usually defined, the pIC50 is −log10 of the IC50, conventionally taken in molar units.
